Source: US20250241893A1, “TREATMENT OF COGNITIVE DYSFUNCTION” (GH RESEARCH IRELAND LIMITED, priority 2022, published 2025)
Entries after “also recorded” stand apart in the source; their conditions may differ.

What was measured:
[1] = system: Salmonella typhimurium (TA98, TA100, TA1535 and TA1537); assay: Bacterial mutation test in Salmonella typhimurium; format: cell-based; settings: up to 5000 μg/plate, absence and presence of rat liver S-9
Protocol: (§1) These conditions included treatments at concentrations up to 5000 μg/plate (the maximum recommended concentration according to current regulatory guidelines), in the absence and in the presence of a rat liver metabolic activation system (S-9).

[2] = system: Escherichia coli (WP2 uvrA pKM101); assay: Bacterial mutation test in Escherichia coli; format: cell-based; settings: up to 5000 μg/plate, absence and presence of rat liver S-9
Protocol: as §1

[3] = system: patients with postpartum depression (PPD); assay: Clinical trial of inhaled 5-MeO-DMT in postpartum depression; settings: one PPD patient
Protocol: The single-arm, open-label clinical trial will involve 15 adult female patients with clinically diagnosed postpartum depression (PPD).
The second dose (12 mg) will only be administered if: • a. A peak experience (total score of • 75) has not been achieved following the 6 mg dose, and • b. The 6 mg dose was safe and well-tolerated according to the investigator, • c. Any psychoactive effects (PsE) of the prior dose have subsided, and • d. Pre-dose vital parameters and forced expiratory volume in one second (FEV1) are in normal range, or if outside of the normal range, are not clinically significant according to the investigator. • 3. Similarly, a third dose (18 mg) will only be administered if: • a. A peak experience (total score of • 75) has not been achieved following the 12 mg dose, and • b. The 12 mg dose was safe and well-tolerated according to the investigator, and • c. Any PsE of the prior dose have subsided, and • d. Pre-dose vital parameters and forced expiratory volume in one second (FEV1) are in normal range, or if outside of the normal range, are not clinically significant according to the investigator.
The patients will be assessed for a peak psychedelic experience (based on a patient-scored visual analogue scale, the PE scale), sedation, and other endpoints after dosing.
Follow-up visits are planned for Day 1, and Day 7 after the dosing day.
The following criteria must be met by all patients considered for clinical trial participation: • 1. Is female and in the age range between 18 and 45 years (inclusive) at screening. • 2. Has a body mass index (BMI) in the range of 18.5 and 35 kg/m^2 (inclusive) at screening. • 3. Meets the trial criteria for PPD as assessed by a trial psychiatrist or registered psychologist: • a. Diagnosis of Major Depressive Disorder without psychotic features, confirmed by the Mini-International Neuropsychiatric Interview (MINI), with peri-partum onset that began no earlier than gestation and no later than the first 4 weeks postpartum. • b. Has a Montgomery-Asberg Depression Rating Scale (MADRS) total score of equal to or greater than 28 at screening and pre-dose on Day 0. • 6. […] Patients must have a negative pregnancy test at screening and on the pre-test day (Day −1). • 5. Is willing to delay start of other antidepressant or anxiety medication until after the end of the trial at Day 7 and agrees to keep any psychotherapy unchanged during the trial.
A potential patient who meets any of the following key exclusion criteria will be excluded from participation in this trial: • 1. Has, based on history, psychiatric assessment, and evaluation of the MINI, a current or prior diagnosis of bipolar disorder, a manic or hypomanic episode, a psychotic disorder, Major Depressive Disorder (MDD) or other mood disorder with psychotic features, obsessive compulsive disorder, post-traumatic stress disorder (PTSD), autism spectrum disorder, borderline personality disorder, schizophrenia, delusional disorder, paranoid personality disorder, schizoaffective disorder, clinically significant intellectual disability, or any other psychiatric comorbidity that renders the patient unsuitable for the trial according to the investigator's judgment. • 2. Has one or more first or second degree relatives with a current or previously diagnosed bipolar disorder, psychotic disorder or other mood disorder (including MDD) with psychotic features. • 3. Is in the judgement of a trial psychiatrist or registered psychologist, at significant risk for suicide based on history, psychiatric assessment, and evaluation of suicidal ideation and suicidal behaviour based on the Columbia-Suicide Severity Rating Scale (C-SSRS). • 4. Has taken anti-depressive medication within 14 days or 5 half-lives (whichever is longer) prior to dosing (exception: within the last 5 weeks in the case of fluoxetine). • 5.

SMILES: COc1ccc2[nH]cc(CCN(C)C)c2c1 [5-MeO-DMT]
- Mutation induction [1]: did not induce mutation
- Mutation induction [2]: did not induce mutation
- ECG (3 hours), safety laboratory analyses (7 days), CADSS (3 hours, 1 day, 7 days) [3]: unremarkable
- MADRS remission (MADRS total score equal or less than 10) [3]: fulfilled
- MADRS response (at least 50% improvement from baseline) [3]: fulfilled
- Reported adverse events (cramping left abdominal pain and headache, Day 0) [3]: mild, short-lasting and resolved spontaneously
- Total MADRS improvement ([3]; 2 hr, baseline 29): 24
- Total MADRS score ([3]; 2 hr, baseline 29): 5
- MADRS Lassitude score ([3]; Day 1, baseline 3): 0
- BPRS Tension improvement ([3]; Day 1, baseline 6): 5
- Total MADRS improvement ([3]; Day 1, baseline 29): 29
- Total MADRS score ([3]; Day 1, baseline 29): 0
- BIMF item 16 (I worry about how other people judge me (as a mother)) score ([3]; Day 7, Day 0 score 3): 5
- BIMF item 10 (I trust my own feelings (instincts) when taking care of my baby) score ([3]; Day 7, Day 0 score 5): 6
- BIMF functional domain Adjustment score ([3]; Day 7, Day 0 score 5, maximum possible 12): 6
- BIMF functional domain Self Care score ([3]; Day 7, Day 0 score 9, maximum possible 18): 13
- BIMF functional domain Infant Care score ([3]; Day 7, Day 0 score 12, maximum possible 12): 12
- BIMF functional domain Mother-Child Interaction score ([3]; Day 7, Day 0 score 15, maximum possible 18): 17
- BIMF functional domain Social Support score ([3]; Day 7, Day 0 score 17, maximum possible 18): 18
- BIMF functional domain Management score ([3]; Day 7, Day 0 score 28, maximum possible 36): 33
- BIMF functional domain Psychological Well-being score ([3]; Day 7, Day 0 score 44, maximum possible 60): 53
- Total MADRS improvement ([3]; Day 7, baseline 29): 28
- Total MADRS score ([3]; Day 7, baseline 29): 1
- BIMF total score percentage improvement ([3]; Day 7, from 92 to 105 (possible total 120)): 14%
- BIMF TOTAL Δ (Day 7) ([3]; Day 7 vs Day 0): 13
- BIMF functional domain Adjustment % improvement ([3]; Day 7 vs Day 0): 20.00%
- BIMF functional domain Infant Care % improvement ([3]; Day 7 vs Day 0): 0.00%
- BIMF functional domain Management % improvement ([3]; Day 7 vs Day 0): 18%
- BIMF functional domain Self Care % improvement ([3]; Day 7 vs Day 0): 44%
- Time to clinical remission after administration ([3]; IDR): ≤ 2 h
- Tolerability of inhaled 5-MeO-DMT ([3]; IDR 6 mg then 12 mg): well tolerated with no inhalation-related adverse events; also recorded: well tolerated
- BPRS Tension improvement ([3]; discharge, baseline 6): 5
- Changes in vital parameters ([3]; shortly after administration): temporary, clinically non-relevant increase in heart rate and blood pressure
